According to patent US9157104B2, “Method to improve phosphate solubilization in plants” (Consiglio Nazionale delle Ricerche, priority 2009, dated 2015):

Key:
S. meliloti 1021 = test: Microarray gene expression of 1021 cells treated with 0.5 mM compound; conditions: P-sufficient (13 mM);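 further: cells were harvested 3 h after the start of each treatment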
Method: For P starvation experiments, cells of 1021 wild-type and RD64 strains were grown at 30° C. to mid exponential phase (OD600=0.6) in RMM broth containing 1% (w/v) mannitol as carbon source and 13 mM P, washed with RMM containing 0 P, resuspended in the same medium and then divided into three cultures. No P (−P), 1.0 mM P (P-starved cells) or 13 mM P (+P cells also named P-sufficient cells) was added into the three cultures, respectively. The P-starved and P-sufficient 1021 wild type cells were treated for 3.0 hours with 0.5 mM IAA. […] To rule out that this bacteria could be partially starved for Trp, RD64 cells were also treated with 0.5 mM Trp and used for microarrays and RT-PCR analyses. […] After 3 hours of each treatment, cell batches were collected, freezed and stored at −80° C. for use in experiments.

[1] = test system: pho operon genes in S. meliloti cells; test: Quantitative RT-PCR analysis of pho operon genes; format: cell-based; conditions: for expression level of all five pho genes (RT-PCR): P-starved conditions, vs control 1021
Method: FIG. S1. Quantitative RT-PCR analysis of pho operon genes in S. meliloti cells under P-sufficient conditions (13 mM K-phosphate). The relative expression level was >1 for genes more highly expressed in RD64 and in 1021 cells treated for 3 hours with 0.5 mM IAA, Ind, Trp, ICA and 2,4-D. The relative expression level was <1 for genes more highly expressed in 1021 cells (control). Error bars represent the standard deviation from three independent biological experiments.
FIG. 1. Quantitative RT-PCR analysis of pho operon genes expression in S. meliloti cells under P-starving conditions. The relative expression level was >1 for genes more highly expressed in RD64 and in 1021 cells treated for 3 hours with 0.5 mM IAA, Ind, Trp, ICA and 2,4-D. The relative expression level was <1 for genes more highly expressed in 1021 cells (control). Error bars represent the standard deviation from five independent biological experiments (p<0.05).
Total RNA from P-sufficient and P-starved cells was isolated as previously described (5). cDNA were synthesized with the StrataScript™ reverse transcription reagents (Stratagene) and random hexamers as primers. Quantitative PCR was performed with the Power SYBR PCR Master Mix (Applied Biosystems). Reactions were run on the iCycler iQ (Bio-Rad). The thermo cycling condition were: 15 min at 95° C., 40 cycles of denaturation at 95° C. for 20 s, annealing (20 s) and extension (35 s) at 72° C. Specific primer pairs, designed using the Primer3 software, are shown.
smc02641 and smc00128 were used as housekeeping genes for data normalization in the comparative Ct method as previously described (8). Phosphatase Activity

alkaline phosphatase = conditions: phosphate starvation; vs 1021 cells; compounds 0.5 mM, 3 hours at 30° C.
Method: Acid (A) and alkaline (B) phosphatase activity in S. meliloti cells under P-starved conditions. Log-phase cells grown in a MOPS-buffered minimal medium (starting P concentration=13 mM) were washed and then resuspended in the same medium containing no added P (1021 and RD64 strains) and 0.5 mM IAA, Trp or Ind (1021 strain). Treatments were performed for 3 hours at 30° C.
Alkaline and acid phophatase enzymes under P-limiting conditions were assayed as previously reported (16). Units are reported as nanomoles per minute per milligram of protein. Protein concentrations were determined by the Bradford's assay.

acid phosphatase = test: Acid phosphatase activity under P-starved conditions; format: cell-based, S. meliloti; conditions: phosphate starvation; vs 1021 cells; compounds 0.5 mM, 3 hours at 30° C.
[2] = 1021 + 0.5 mM Indole vs untreated 1021
[3] = 1021 + 0.5 mM Tryptophan vs untreated 1021

c1ccc2[nH]ccc2c1 [Indole, indole]
M (log2 ratio of intensities) SMa1077 nex18 (S. meliloti 1021; [2]): 0.7413
M (log2 ratio of intensities) SMa1087 sma1087 (S. meliloti 1021; [2]): 0.7199
M (log2 ratio of intensities) SMa1128 degP4 (S. meliloti 1021; [2]): 1.152
M (log2 ratio of intensities) SMa1329 sma1329 (S. meliloti 1021; [2]): 1.658
M (log2 ratio of intensities) SMb21177 phoC (S. meliloti 1021; [2]): 1.282
M (log2 ratio of intensities) SMb21183 htpG (S. meliloti 1021; [2]): 0.9544
M (log2 ratio of intensities) SMc00182 smc00182 (S. meliloti 1021; [2]): −0.9429
M (log2 ratio of intensities) SMc00335 rpsA (S. meliloti 1021; [2]): −0.7083
M (log2 ratio of intensities) SMc00364 rplT (S. meliloti 1021; [2]): −1.373
M (log2 ratio of intensities) SMc00383 gst3 (S. meliloti 1021; [2]): −0.7478
M (log2 ratio of intensities) SMc01106 smc01106 (S. meliloti 1021; [2]): 1.513
M (log2 ratio of intensities) SMc01291 rpmD (S. meliloti 1021; [2]): −1.485
M (log2 ratio of intensities) SMc01308 rplD (S. meliloti 1021; [2]): −1.252
M (log2 ratio of intensities) SMc01311 tufA (S. meliloti 1021; [2]): −0.711
M (log2 ratio of intensities) SMc01312 fusA1 (S. meliloti 1021; [2]): 0.9128
M (log2 ratio of intensities) SMc01318 rplL (S. meliloti 1021; [2]): −0.7037
M (log2 ratio of intensities) SMc01946 livK (S. meliloti 1021; [2]): −1.077
M (log2 ratio of intensities) SMc02501 atpD (S. meliloti 1021; [2]): −1.405
M (log2 ratio of intensities) SMc02857 dnaK (S. meliloti 1021; [2]): 0.7321
M (log2 ratio of intensities) SMc03159 smc03159 (S. meliloti 1021; [2]): −0.938
M (log2 ratio of intensities) SMc03167 smc03167 (S. meliloti 1021; [2]): 0.7656
M (log2 ratio of intensities) SMc03253 smc03253 (S. meliloti 1021; [2]): 1.951
M (log2 ratio of intensities) SMc03829 smc03829 (S. meliloti 1021; [2]): 0.8604
M (log2 ratio of intensities) SMc04040 ibpA (S. meliloti 1021; [2]): 2.449
M (log2 ratio of intensities) SMc04087 smc04087 (S. meliloti 1021; [2]): 1.944
M (log2 ratio of intensities) SMc04114 pilA1 (S. meliloti 1021; [2]): −1.888
M (log2 ratio of intensities) SMc04140 smc04140 (S. meliloti 1021; [2]): 1.411
M (log2 ratio of intensities) SMc04141 gst9 (S. meliloti 1021; [2]): 1.708
expression level of all five pho genes (RT-PCR) ([1]; compounds 0.5 mM, 3 hours): only slightly induced or unchanged
alkaline phosphatase activity (alkaline phosphatase): unaffected, or only slightly increased
acid phosphatase activity (acid phosphatase): unaffected, or only slightly increased

N[C@@H](Cc1c[nH]c2ccccc12)C(=O)O [Tryptophan, tryptophan]
M (log2 ratio of intensities) SMa0707 sma0707 (S. meliloti 1021; [3]): 0.9084
M (log2 ratio of intensities) SMa0711 sma0711 (S. meliloti 1021; [3]): 0.8863
M (log2 ratio of intensities) SMa1007 sma1007 (S. meliloti 1021; [3]): 0.9801
M (log2 ratio of intensities) SMa1073 sma1073 (S. meliloti 1021; [3]): 0.7423
M (log2 ratio of intensities) SMa1087 sma1087 (S. meliloti 1021; [3]): 0.751
M (log2 ratio of intensities) SMa1118 hspC2 (S. meliloti 1021; [3]): 0.8663
M (log2 ratio of intensities) SMa1128 degP4 (S. meliloti 1021; [3]): 1.449
M (log2 ratio of intensities) SMa1321 virB1 (S. meliloti 1021; [3]): 4.445
M (log2 ratio of intensities) SMa2145 sma2145 (S. meliloti 1021; [3]): 0.9145
M (log2 ratio of intensities) SMa2189 sma2189 (S. meliloti 1021; [3]): 0.993
M (log2 ratio of intensities) SMb20585 ggt (S. meliloti 1021; [3]): 1.09
M (log2 ratio of intensities) SMb20672 smb20672 (S. meliloti 1021; [3]): 1.815
M (log2 ratio of intensities) SMb20984 nirB 4 (S. meliloti 1021; [3]): −1.11
M (log2 ratio of intensities) SMb21566 groEL5 (S. meliloti 1021; [3]): −1.021
M (log2 ratio of intensities) SMc00155 aroF (S. meliloti 1021; [3]): −1.565
M (log2 ratio of intensities) SMc00182 smc00182 (S. meliloti 1021; [3]): −1.097
M (log2 ratio of intensities) SMc01169 ald (S. meliloti 1021; [3]): 0.7379
M (log2 ratio of intensities) SMc01293 rplR 3 (S. meliloti 1021; [3]): −0.7637
M (log2 ratio of intensities) SMc01311 tufA (S. meliloti 1021; [3]): −0.7229
M (log2 ratio of intensities) SMc01313 rpsG (S. meliloti 1021; [3]): −0.7518
M (log2 ratio of intensities) SMc01314 rpsL (S. meliloti 1021; [3]): −0.7349
M (log2 ratio of intensities) SMc01636 smc01636 (S. meliloti 1021; [3]): −0.9473
M (log2 ratio of intensities) SMc02507 sitC (S. meliloti 1021; [3]): 1.133
M (log2 ratio of intensities) SMc03253 smc03253 (S. meliloti 1021; [3]): 2.689
M (log2 ratio of intensities) SMc04140 smc04140 (S. meliloti 1021; [3]): 2.032
M (log2 ratio of intensities) SMc04141 gst9 (S. meliloti 1021; [3]): 1.581
M (log2 ratio of intensities) SMc04147 smc04147 (S. meliloti 1021; [3]): 0.8262
M (log2 ratio of intensities) SMc04434 rpmH (S. meliloti 1021; [3]): −0.7758
pho genes among those significantly affected (microarray) (S. meliloti 1021; 1021 + 0.5 mM compound vs untreated 1021): did not find any pho genes
expression of pho genes in RD64 cells after addition of compound ([1]; 0.5 mM added to RD64 cells, vs untreated RD64 cells, data not shown): unaffected or slightly reduced
expression level of all five pho genes (RT-PCR) ([1]; compounds 0.5 mM, 3 hours): only slightly induced or unchanged
phoB regulatory gene expression (qRT-PCR) ([1]; P-sufficient (13 mM K-phosphate), vs untreated 1021 cells, compounds 0.5 mM, 3 hours): unaffected
alkaline phosphatase activity (alkaline phosphatase): unaffected, or only slightly increased
acid phosphatase activity (acid phosphatase): unaffected, or only slightly increased
